This is an account of results in PubChem BioAssay (NCI).

Some test systems named below: A549 NSCLC; BT-549 breast; MDA-N; OVCAR-3 ovarian; PC-3 prostate; SF-268 CNS; SNB-75 CNS; SR leukemia; TK-10 renal.
Common to all, as to assay: NCI anticancer screen, dose series, 48 h

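These data come from cells grown in 96-well plates and exposed to compound for 48 hours at five concentrations. TGI: total growth inhibition.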

For `COc1ccc(OC)c(C2CCc3cnc4nc(N)nc(N)c4c3C2)c1` (centres undefined), the TGI in the assay on A549 NSCLC, with BT-549 breast, in the assay with MDA-N, with OVCAR-3 ovarian, in the assay on PC-3 prostate and in the assay on SF-268 CNS was greater than 100 µM each time. The TGI is 50.1 µM with SNB-75 CNS, greater than 100 µM with SR leukemia and greater than 100 µM in the assay with TK-10 renal.
As to `O=S(=O)(Nc1ccccc1S(=O)(=O)c1ccccc1)c1ccccc1`, the TGI in the assay on A549 NSCLC, in the assay with BT-549 breast, with MDA-N, in the assay with OVCAR-3 ovarian, in the assay with PC-3 prostate and in the assay with SF-268 CNS was greater than 100 µM in each case. Also, the TGI in the assay on SNB-75 CNS, with SR leukemia and in the assay on TK-10 renal was greater than 100 µM in each case.
With `N#Cc1c(N2CCOCC2)ncn(-c2ccccc2)c1=O`, the TGI in the assay on A549 NSCLC, with BT-549 breast, in the assay with MDA-N, with OVCAR-3 ovarian, with PC-3 prostate and in the assay with SNB-75 CNS was greater than 100 µM each time. This compound also yielded a TGI with SR leukemia greater than 100 µM.
`CC(=O)OC1CC(OC2C(O)CC(OC3C(O)CC(OC4CCC5(C)C(CCC6C5CC(O)C5(C)C(C7=CC(=O)OC7)CCC65O)C4)OC3C)OC2C)OC(C)C1O` (centres undefined) (tested in a mixture with another compound): the TGI in the assay with A549 NSCLC turned out to be 0.0259 µM; with BT-549 breast, 0.201 µM; with MDA-N, 0.147 µM; in the assay with OVCAR-3 ovarian, 0.0507 µM; in the assay with PC-3 prostate, 0.123 µM; in the assay on SF-268 CNS it was 0.119 µM. Moreover, the TGI in the assay on SNB-75 CNS was 0.191 µM; in the assay with SR leukemia, greater than 100 µM; with TK-10 renal, 0.114 µM.
Take `C=CCC1(O)c2cccc(O)c2C(=O)c2c(O)cccc21`: the TGI with A549 NSCLC was 88.4 µM; with BT-549 breast, 60.7 µM; with MDA-N it was 45 µM; in the assay with OVCAR-3 ovarian it was greater than 100 µM; with PC-3 prostate it was 88 µM; in the assay on SF-268 CNS it was greater than 100 µM. Moreover, the results for the TGI with SNB-75 CNS, in the assay with SR leukemia and in the assay with TK-10 renal were 75.2 µM, 44.7 µM and greater than 100 µM, respectively.
With `CC(C)(C)OC(=O)C(C1NC(C(=O)O)C(C)(C)S1)N1C(=O)c2ccccc2C1=O` (centres undefined), the TGI with A549 NSCLC, in the assay with BT-549 breast, in the assay on MDA-N, in the assay on OVCAR-3 ovarian, with PC-3 prostate and in the assay on SF-268 CNS was greater than 100 µM each time. Further, the TGI in the assay with SNB-75 CNS, in the assay on SR leukemia and in the assay on TK-10 renal was greater than 100 µM each time.
Take `CCNC1CC(C(C)(C)NCC)CC=C1C` (centres undefined): the TGI in the assay with A549 NSCLC, with BT-549 breast, with MDA-N, with OVCAR-3 ovarian, in the assay on PC-3 prostate and in the assay with SF-268 CNS was greater than 100 µM in each case. Moreover, the TGI in the assay with SNB-75 CNS, in the assay with SR leukemia and in the assay on TK-10 renal was greater than 100 µM each time.
As to `COC(=O)[C@]1(c2cc3ccccc3n2S(=O)(=O)c2ccccc2)CC2CCC1NC2` (some centres undefined), the TGI is 25.2 µM in the assay on A549 NSCLC; 32.9 µM with BT-549 breast; 27.8 µM in the assay with MDA-N; 33.1 µM in the assay with OVCAR-3 ovarian; 24.5 µM with PC-3 prostate; 40 µM in the assay on SF-268 CNS. Moreover, the TGI in the assay on SNB-75 CNS is 30.5 µM; with SR leukemia, 19.2 µM; in the assay with TK-10 renal, greater than 100 µM.
Regarding `Cc1ccc(S(=O)(=O)n2ccn3c(=O)cc(C)nc23)cc1`, the TGI in the assay on A549 NSCLC, with BT-549 breast, in the assay with MDA-N, in the assay on OVCAR-3 ovarian, in the assay on PC-3 prostate and in the assay with SF-268 CNS was greater than 10 µM each time. Moreover, the TGI in the assay on SNB-75 CNS, in the assay on SR leukemia and in the assay on TK-10 renal was greater than 10 µM each time.
Consider `CCCNc1[nH]c(C(C)=O)c(N)c1C(=S)Nc1ccccc1`, for which the TGI is greater than 100 µM with A549 NSCLC; 68.4 µM with BT-549 breast; greater than 100 µM with MDA-N; greater than 100 µM in the assay with OVCAR-3 ovarian; greater than 100 µM in the assay on PC-3 prostate; 86.8 µM in the assay on SF-268 CNS. Moreover, the TGI in the assay with SNB-75 CNS, in the assay with SR leukemia and with TK-10 renal was greater than 100 µM in each case.
With `COC(=O)C(Cc1ccccc1)NS(=O)(=O)c1ccc(-c2c3nc(c(-c4ccc(S(=O)(=O)NC(Cc5ccccc5)C(=O)OC)cc4)c4ccc([nH]4)c(-c4ccc(S(=O)(=O)NC(Cc5ccccc5)C(=O)OC)cc4)c4nc(c(-c5ccc(S(=O)(=O)NC(Cc6ccccc6)C(=O)OC)cc5)c5ccc2[nH]5)C=C4)C=C3)cc1` (centres undefined), the TGI in the assay with A549 NSCLC, in the assay with BT-549 breast, in the assay with MDA-N, with OVCAR-3 ovarian, with PC-3 prostate and in the assay on SF-268 CNS was greater than 100 µM in each case. The TGI in the assay on SNB-75 CNS was 31.5 µM; with SR leukemia it was greater than 100 µM; in the assay with TK-10 renal it was greater than 100 µM.
For `CC(C)C1OCC(CO)CO1` (centres undefined), the TGI with A549 NSCLC, in the assay on BT-549 breast, in the assay on MDA-N, with OVCAR-3 ovarian, in the assay with PC-3 prostate and with SF-268 CNS was greater than 100 µM each time. In addition, the TGI in the assay with SNB-75 CNS, with SR leukemia and in the assay with TK-10 renal was greater than 100 µM each time.
`CC1C(c2ccccc2O)c2cc3c(cc2OC1N1CCCC1)OCO3` (centres undefined): the TGI in the assay with A549 NSCLC is greater than 100 µM; in the assay with BT-549 breast, greater than 100 µM; in the assay on MDA-N it was 46.8 µM; with OVCAR-3 ovarian, 56.6 µM; with PC-3 prostate it was 98.8 µM; in the assay on SF-268 CNS, greater than 100 µM. For the same compound, the results for the TGI in the assay on SNB-75 CNS, with SR leukemia and in the assay on TK-10 renal were 88 µM, 54.2 µM and greater than 100 µM, respectively.
As for `O=C1c2c(Br)sc(Br)c2[C@H]2NC(=S)O[C@@H]12`, the TGI in the assay on A549 NSCLC came to 46.8 µM; in the assay on BT-549 breast it was 30.3 µM; in the assay on MDA-N it was 30.6 µM; with OVCAR-3 ovarian it was 20.4 µM; in the assay with PC-3 prostate, 27.7 µM; with SF-268 CNS, 30.2 µM. Moreover, the TGI in the assay on SNB-75 CNS was found to be 34.7 µM; in the assay with SR leukemia it was 15.3 µM; in the assay with TK-10 renal, 57.9 µM.
